From patent US10851082B2, “Substituted aromatic n-heterocyclic compounds as inhibitors of mitogen-activated protein kinase interacting kinase 1 (MNK1) and 2 (MNK2)” (Northwestern University, priority 2015, dated 2020)
Where two headings read alike, the source gives them in different places.

How the values were obtained:
Mnk1 = Mnk1 (Homo sapiens (Human), UniProt Q9BUB5); assay: Mnk1 kinase inhibition, ADP-Glo ADP monitoring assay; assay type: biochemical
Procedure: (§1) The synthesized compounds then were tested for inhibition of the kinase activity (IC50) of Mnk1 and/or Mnk2 using the ADP monitoring assay for kinases described in Zegzouti, H.; Zdanovskaia, M.; Hsiao, K.; Goueli, S. A., ADP-Glo: A Bioluminescent and homogeneous ADP monitoring assay for kinases.

Mnk2 = Mnk2 (Homo sapiens (Human), UniProt Q9HBH9); assay: Mnk2 kinase inhibition, ADP-Glo ADP monitoring assay; assay type: biochemical
Procedure: as §1

[1] = ADP-Glo kinase assay, read-out: Mnk2 IC50
[2] = read-out: Mnk1 inhibition IC50 (+,++,+++)
[3] = ADP-Glo kinase assay, read-out: Mnk2 inhibition IC50 (+,++,+++)
[4] = unit inferred, read-out: Mnk1 IC50
[5] = ADP-Glo kinase assay, unit inferred, read-out: Mnk2 IC50

Mnk1, sequence (Q9BUB5 whole entry): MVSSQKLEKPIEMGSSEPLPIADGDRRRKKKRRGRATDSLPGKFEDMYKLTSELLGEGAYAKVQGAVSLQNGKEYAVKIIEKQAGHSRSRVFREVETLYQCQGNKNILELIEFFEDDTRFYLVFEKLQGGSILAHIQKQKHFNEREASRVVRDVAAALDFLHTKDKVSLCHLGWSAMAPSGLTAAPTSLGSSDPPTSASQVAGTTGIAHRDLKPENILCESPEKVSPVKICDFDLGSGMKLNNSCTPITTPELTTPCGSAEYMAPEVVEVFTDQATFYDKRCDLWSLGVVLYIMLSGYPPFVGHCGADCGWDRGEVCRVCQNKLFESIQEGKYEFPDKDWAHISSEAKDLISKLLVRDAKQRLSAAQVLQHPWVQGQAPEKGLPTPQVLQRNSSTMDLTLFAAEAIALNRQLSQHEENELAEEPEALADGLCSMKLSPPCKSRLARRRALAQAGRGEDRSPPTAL
Mnk2, sequence (Q9HBH9 whole entry): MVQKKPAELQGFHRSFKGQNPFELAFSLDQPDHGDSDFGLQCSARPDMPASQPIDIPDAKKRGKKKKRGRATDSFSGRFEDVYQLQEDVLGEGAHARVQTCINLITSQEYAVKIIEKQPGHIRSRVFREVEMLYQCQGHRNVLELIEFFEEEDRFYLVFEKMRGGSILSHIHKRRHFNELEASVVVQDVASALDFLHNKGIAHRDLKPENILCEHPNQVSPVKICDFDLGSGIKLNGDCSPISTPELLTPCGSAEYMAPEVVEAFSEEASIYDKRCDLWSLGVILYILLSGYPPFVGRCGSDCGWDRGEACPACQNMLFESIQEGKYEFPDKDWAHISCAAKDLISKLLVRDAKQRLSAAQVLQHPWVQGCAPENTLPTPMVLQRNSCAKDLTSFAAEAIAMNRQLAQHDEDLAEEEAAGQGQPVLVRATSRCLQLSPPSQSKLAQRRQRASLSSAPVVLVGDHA

Structure (SMILES) | IC50 (Mnk1; read-out: Mnk1 IC50) [µM] | IC50 (Mnk2; [1]) [µM] | IC50 (Mnk1; [2]) [µM] | further results
c1ccc2c(c1)CCN2c1ccnc(NCCc2ccncc2)n1 [NUCC-0176233] | 8.5 | 4.7 | – | –
Cc1ccc2c(c1)ncn2-c1ncc(Cl)c(NCCc2ccncc2)n1 [NUCC-0200909] | – | – | < 1 | IC50 (Mnk2; [3]): < 1 µM
CC1(C)COC(=O)C1Oc1ncc(Cl)c(-n2cnc3ccccc32)n1 (stereo not drawn) [NUCC-0201017] | – | – | < 1 | IC50 (Mnk2; [3]): < 1 µM
O=C(Nc1ccccc1)Nc1nccc(-n2cnc3ccccc32)n1 [NUCC-0176351] | – | – | – | Mnk1 IC50 (Mnk1): no activity; Mnk2 IC50 (Mnk2; ADP-Glo kinase assay): no activity
Clc1cnc(OCCN2CCOCC2)nc1-n1cnc2ccccc21 [NUCC-0200806] | – | – | 1 to 10 | IC50 (Mnk2; [3]): < 1 µM
FC(F)(F)c1cnc(OC2CCNC2)nc1-n1cnc2ccccc21 (stereo not drawn) [NUCC-0201897] | – | – | < 1 | IC50 (Mnk2; [3]): < 1 µM
c1ccc2c(c1)ncn2-c1ccnc(NC2CCOCC2)n1 [NUCC-0125595] | 0.5 | 0.083 | – | –
O[C@@H]1CC[C@@H](Nc2nccc(-n3cnc4ccccc43)n2)C1 [NUCC-0176165] | 0.34 | 0.061 | – | –
CC1=C(Oc2ncc(Cl)c(-n3cnc4ccccc43)n2)C(=O)CO1 [NUCC-0201019] | – | – | 1 to 10 | IC50 (Mnk2): 1 to 10 µM
c1ccc2c(c1)CCN2c1ccnc(N[C@@H]2CCOC2)n1 [NUCC-0176232] | 4.6 | 2.3 | – | –
Fc1cccc(CCOc2ncc(Cl)c(-n3cnc4ccccc43)n2)c1 [NUCC-0201906] | – | – | < 1 | IC50 (Mnk2; [3]): < 1 µM
CC(C)(COc1ncc(Cl)c(-n2cnc3ccccc32)n1)c1ccnc(F)c1 [NUCC-0201914] | – | – | < 1 | IC50 (Mnk2; [3]): < 1 µM
NC(=O)c1ccc(Nc2nccc(-n3cnc4ccccc43)n2)cc1 [NUCC-0125594] | 0.7 | 0.03 | – | –
c1ccc2c(c1)NCCN2c1ccnc(NCCc2ccncc2)n1 [NUCC-0175722] | 1.2 | 0.25 | – | –
CNC(=O)c1ccc(Nc2nccc(-n3cnc4ccccc43)n2)cc1 [NUCC-0125596] | 0.2 | 0.034 | – | –
NC1CCN(c2ncc(Cl)c(-n3cnc4ccccc43)n2)C1 (stereo not drawn) [NUCC-0201006] | – | – | 1 to 10 | IC50 (Mnk2): 1 to 10 µM
CCCn1ncc(-c2ccnc(NCc3nccn3CC)n2)c1C [NUCC-0054147] | 6 | 16 | – | –
Fc1cc(CCOc2ncc(Cl)c(-n3cnc4ccccc43)n2)ccn1 [NUCC-0201046, 1-(5-chloro-2-(2-(2-fluoropyridin-4-yl)ethoxy)pyrimidin-4-yl)-1H-benzo[d]imidazole] | – | – | < 1 | IC50 (Mnk2; [3]): < 1 µM
Clc1cnc(NCCc2cccnc2)nc1-n1cnc2ccccc21 [NUCC-0176357] | 2.3 | 0.25 | – | –
COC1CCC(Nc2nccc(-n3cnc4ccccc43)n2)CC1 (stereo not drawn) [NUCC-0176153] | 0.48 | 0.081 | – | –

Structure (SMILES) | IC50 (Mnk1; read-out: Mnk1 IC50) [µM] | IC50 (Mnk2; [1]) [µM] | IC50 (Mnk1; [2]) [µM] | further results
Clc1cnc(NC2C3CC2C3)nc1-n1cnc2ccccc21 (stereo not drawn) [NUCC-0201136] | – | – | 1 to 10 | IC50 (Mnk2): 1 to 10 µM
COc1cccc(-n2cc(-c3ccnc(NCCc4ccncc4)c3)cn2)c1 [NUCC-0125601] | 5 | 1.7 | – | –
OC1Cc2ccccc2C1Nc1nccc(-n2cnc3ccccc32)n1 (stereo not drawn) [NUCC-0176369] | – | – | – | Mnk1 IC50 (Mnk1): no activity; Mnk2 IC50 (Mnk2; ADP-Glo kinase assay): no activity
c1cc2c(cn1)ncn2-c1ccnc(NC2CCOC2)n1 (stereo not drawn) [NUCC-0176152] | 1.6 | 1.3 | – | –
Nc1ccnc(-n2cnc3ccccc32)n1 [NUCC-0176349] | 4.1 | 1.4 | – | –
OCCNc1nccc(-n2cnc3ccccc32)n1 [NUCC-0176352] | 0.65 | 0.17 | – | –
c1ccc2c(c1)cnn2-c1ccnc(NCCc2ccncc2)n1 [NUCC-0176346] | 5.4 | 4.7 | – | –
Brc1cnc(OC2CCNC2)nc1-n1cnc2ccccc21 (stereo not drawn) [NUCC-0201895] | – | – | < 1 | IC50 (Mnk2; [3]): < 1 µM
c1ccc(Cn2cc(-c3ccnc(NCCc4ccncc4)n3)cn2)cc1 [NUCC-0060972] | 19 | 2.5 | – | –
NC1CC(Oc2ncc(Cl)c(-n3cnc(C(F)(F)F)c3)n2)C1 (stereo not drawn) [NUCC-0201664] | – | – | < 1 | IC50 (Mnk2): 1 to 10 µM
OCCNc1ncc(Cl)c(-n2cnc3ccccc32)n1 [NUCC-0176358] | 0.45 | 0.13 | – | –
OC1CCCC1Nc1nccc(-n2cnc3ccccc32)n1 (stereo not drawn) [NUCC-0176147] | 0.45 | 0.082 | – | –
COc1cccc(-n2cc(-c3ccnc(NC4CCNC4)n3)cn2)c1 (stereo not drawn) [NUCC-0125590] | 6 | 0.78 | – | –
Cc1ccc2c(c1)ncn2-c1nc(NCCc2ccncc2)ncc1Cl [NUCC-0200908] | – | – | > 10 | IC50 (Mnk2): 1 to 10 µM
Nc1cc(-n2cnc3ccccc32)nc(NCc2cccnc2)n1 [NUCC-0196223] | – | – | – | IC50 (Mnk1; [4]): > 10 µM; IC50 (Mnk2; [5]): 1.8 µM
O=C(O)C1CC(Oc2ncc(Cl)c(-n3cnc4ccccc43)n2)C1 (stereo not drawn) [NUCC-0201891] | – | – | 1 to 10 | IC50 (Mnk2; [3]): < 1 µM
NC1CC(Oc2nc(C3CC3)c(Cl)c(-n3cnc4ccccc43)n2)C1 (stereo not drawn) [NUCC-0201915, 3-((4-(1H-benzo[d]imidazol-1-yl)-5-chloro-6-cyclopropylpyrimidin-2-yl)oxy)cyclobutanamine] | – | – | 1 to 10 | IC50 (Mnk2): 1 to 10 µM
O=C1NCCCCC1Nc1nccc(-n2cnc3ccccc32)n1 (stereo not drawn) [NUCC-0176367] | 2.6 | 0.5 | – | –
N#Cc1cnc(NC2CNC(=O)C2)nc1-n1cnc2ccccc21 (stereo not drawn) [NUCC-0201905] | – | – | < 1 | IC50 (Mnk2; [3]): < 1 µM
NC(=O)c1cc(-n2cnc3ccccc32)nc(NCCc2ccncc2)n1 [NUCC-0196265] | – | – | – | IC50 (Mnk1; [4]): 1.6 µM; IC50 (Mnk2; [5]): 0.89 µM

Structure (SMILES) | IC50 (Mnk1; read-out: Mnk1 IC50) [µM] | IC50 (Mnk2; [1]) [µM] | IC50 (Mnk1; [2]) [µM] | further results
N#Cc1cnc(OCCN2CCOCC2)nc1-n1cnc2ccccc21 [NUCC-0200791] | – | – | 1 to 10 | IC50 (Mnk2; [3]): < 1 µM
Fc1cnc(NC23CC(C2)C3)nc1-n1cnc2ccccc21 [NUCC-0201887] | – | – | < 1 | IC50 (Mnk2; [3]): < 1 µM
Clc1cnc(CCc2ccccn2)nc1-n1cnc2ccccc21 [NUCC-0201706, 1-(5-chloro-2-(2-(pyridin-2-yl)ethyl)pyrimidin-4-yl)-1H-benzo[d]imidazole] | – | – | 1 to 10 | IC50 (Mnk2): 1 to 10 µM
NC1CC(Oc2ncc(Br)c(-n3cnc4ccccc43)n2)C1 (stereo not drawn) [NUCC-0201893] | – | – | < 1 | IC50 (Mnk2; [3]): < 1 µM
c1ccc2c(c1)ncn2-c1ccnc(NC2CCCOC2)n1 (stereo not drawn) [NUCC-0176151] | 0.39 | 0.044 | – | –
Cc1cc2ncn(-c3nc(NCCc4ccncc4)ncc3Cl)c2cc1C [NUCC-0200797] | – | – | > 10 | IC50 (Mnk2; [3]): < 1 µM
CC(O)CNc1ccnc(-n2cnc3ccccc32)n1 (stereo not drawn) [NUCC-0176348] | 0.71 | 0.13 | – | –
c1ccc2c(c1)ncn2-c1ccnc(NN2CCOCC2)n1 [NUCC-0176146] | 12 | 1 | – | –
c1ccc2c(c1)ccn2-c1cc(NCCc2ccncc2)ncn1 [NUCC-0176285] | 4.7 | 6 | – | –
c1cncc(CCNc2nccc(-n3cnc4ccccc43)n2)c1 [NUCC-0176340] | 0.55 | 0.069 | – | –
COC1CCC(Nc2nccc(-n3cnc4ccccc43)n2)CC1 (stereo not drawn) [NUCC-0176167] | 0.3 | 0.06 | – | –
FC(F)(F)c1cc(NC(=S)Nc2nccc(-n3cnc4ccccc43)n2)cc(C(F)(F)F)c1 [NUCC-0176363] | – | – | – | Mnk1 IC50 (Mnk1): no activity; Mnk2 IC50 (Mnk2; ADP-Glo kinase assay): no activity
Cn1cc(-c2ccnc(N3CCC[C@H]3CO)n2)cn1 [NUCC-0060896] | 3 | 3.4 | – | –
O=[N+]([O-])c1ccc(NCCNc2ccnc(-n3cnc4ccccc43)n2)nc1 [NUCC-0176366] | 8.5 | 2.5 | – | –
c1ccc2c(c1)ncn2-c1ccnc(NCCc2ccncc2)c1 [NUCC-0196262] | – | – | – | IC50 (Mnk1; [4]): 1.3 µM; IC50 (Mnk2; [5]): 1.2 µM
N#Cc1cnc(OCc2cccnc2)nc1-n1cnc2ccccc21 [NUCC-0200903] | – | – | < 1 | IC50 (Mnk2; [3]): < 1 µM
c1cnc2ncn(-c3ccnc(NCCc4ccncc4)n3)c2c1 [NUCC-0176138] | 8.5 | 6 | – | –
O[C@@H](c1ccccc1)[C@H](Nc1nccc(-n2cnc3ccccc32)n1)c1ccccc1 [NUCC-0196256] | – | – | – | IC50 (Mnk1; [4]): 7.3 µM; IC50 (Mnk2; [5]): 3.8 µM
COc1cnc(NCCc2ccncc2)nc1-n1cnc2ccccc21 [NUCC-0175698] | 5 | 1.8 | – | –
CN(C)CCNc1nccc(-n2cnc3ccccc32)n1 [NUCC-0125582] | 0.5 | 0.048 | – | –
